Laboratory results as given in the supplement of paper PMC11451515.

How the values were obtained:
SEM cells [1] = assay: cell viability relative to DMSO control; higher = less cytotoxic; details: 48 h
Outline: (§1)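 Library compounds in DMSO were pin-dosed into 1536-well plates (5 μl) holding NOMO1 or SEM (500 cells/well) or P12-Ichikawa (1000 cells/well) leukemia cells, across an 11-point threefold series of 47 μM to 0.79 nM. Each cell line had been adapted for at least four passages in each medium. CellTiter-Glo One luminescence was read after 48 h at 37°C. Viability is the per-plate percentage relative to DMSO wells, with cell-free wells as background.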

NOMO1 [2] = assay: AUC of viability dose-response curve (% viability x log10 dose units); higher = less sensitive; details: 48 h
Outline: (§2)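 Viability of medium-adapted leukemia cells was measured by CellTiter-Glo One luminescence after 48 h at 37°C with library compounds in DMSO. Doses were 11 threefold steps from 47 μM to 0.79 nM, in 1536-well plates at 500 or 1000 cells/well. Signals were normalised per plate to DMSO and cell-free wells and fitted with a four-parameter log-logistic model on log10 dose. Area under the curve was integrated by trapezoidal rule, with curves exceeding full viability scaled and failed quality-control curves removed.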

P12-Ichikawa [3] = assay: as above; details: 48 h
Outline: as §2

SEM cells [4] = assay: as above; details: 48 h
Outline: as §2

NOMO1 [5] = assay: cell viability relative to DMSO control; higher = less cytotoxic; details: 48 h
Outline: as §1

P12-Ichikawa [6] = assay: as above; details: HPLM + 10% dialyzed FBS, 48 h
Outline: as §1

[7] = HPLM + 10% dialyzed FBS, 0.000781 µM
[8] = HPLM + 10% dialyzed FBS, 0.00234 µM
[9] = HPLM + 10% dialyzed FBS, 0.00702 µM
[10] = HPLM + 10% dialyzed FBS, 0.0211 µM
[11] = HPLM + 10% dialyzed FBS, 0.0632 µM
[12] = HPLM + 10% dialyzed FBS, 0.19 µM
[13] = HPLM + 10% dialyzed FBS, 0.569 µM
[14] = HPLM + 10% dialyzed FBS, 1.71 µM
[15] = HPLM + 10% dialyzed FBS, 5.12 µM
[16] = HPLM + 10% dialyzed FBS, 15.4 µM
[17] = HPLM + 10% dialyzed FBS, 46.1 µM
[18] = RPMI 5 mM glucose + 10% dialyzed FBS
[19] = RPMI 5 mM glucose + 10% FBS, 0.000781 µM
[20] = RPMI 5 mM glucose + 10% FBS, 0.00234 µM
[21] = RPMI 5 mM glucose + 10% FBS, 0.00702 µM
[22] = RPMI 5 mM glucose + 10% FBS, 0.0211 µM
[23] = RPMI 5 mM glucose + 10% FBS, 0.0632 µM
[24] = RPMI 5 mM glucose + 10% FBS, 0.19 µM
[25] = RPMI 5 mM glucose + 10% FBS, 0.569 µM
[26] = RPMI 5 mM glucose + 10% FBS, 1.71 µM
[27] = RPMI 5 mM glucose + 10% FBS, 5.12 µM
[28] = RPMI 5 mM glucose + 10% FBS, 15.4 µM
[29] = RPMI 5 mM glucose + 10% FBS, 46.1 µM

## C[C@@H]1O[C@@H](O[C@H]\2CC[C@]\3(C)[C@@H]4CC[C@]5(C)[C@@H](CC[C@@]5(O)[C@H]4CCC3=C2)C/6=C/OC(=O)/C=C6)[C@H](O)[C@H](O)[C@@H]1O
SEM cells [1]; [7]
  cell viability: 124%
SEM cells [1]; [8]
  cell viability: 121%
SEM cells [1]; [9]
  cell viability: 109%
SEM cells [1]; [10]
  cell viability: 79.3%
SEM cells [1]; [11]
  cell viability: 11.6%
SEM cells [1]; [12]
  cell viability: 12.5%
SEM cells [1]; [13]
  cell viability: 9.21%
SEM cells [1]; [14]
  cell viability: 8.61%
SEM cells [1]; [15]
  cell viability: 8.87%
SEM cells [1]; [16]
  cell viability: 7.79%
SEM cells [1]; [17]
  cell viability: 4.4%
NOMO1 [2]; HPLM + 10% dialyzed FBS
  AUC of viability dose-response curve: 187
NOMO1 [2]; RPMI 5 mM glucose + 10% FBS
  AUC of viability dose-response curve: 214
NOMO1 [2]; [18]
  AUC of viability dose-response curve: 193
P12-Ichikawa [3]; HPLM + 10% dialyzed FBS
  AUC of viability dose-response curve: 181
P12-Ichikawa [3]; RPMI 5 mM glucose + 10% FBS
  AUC of viability dose-response curve: 197
P12-Ichikawa [3]; [18]
  AUC of viability dose-response curve: 173
SEM cells [4]; HPLM + 10% dialyzed FBS
  AUC of viability dose-response curve: 173
SEM cells [4]; RPMI 5 mM glucose + 10% FBS
  AUC of viability dose-response curve: 193
SEM cells [4]; [18]
  AUC of viability dose-response curve: 186

## C[C@H]([C@H]1C\C(=C(CO)/C(=O)O1)C)[C@H]2CC[C@H]3[C@@H]4C[C@H]5O[C@]56[C@@H](O)\C=C/C(=O)[C@]6(C)[C@H]4CC[C@]23C
NOMO1 [5]; [19]
  cell viability: 133%
NOMO1 [5]; [20]
  cell viability: 123%
NOMO1 [5]; [21]
  cell viability: 122%
NOMO1 [5]; [22]
  cell viability: 128%
NOMO1 [5]; [23]
  cell viability: 119%
NOMO1 [5]; [24]
  cell viability: 115%
NOMO1 [5]; [25]
  cell viability: 28.6%
NOMO1 [5]; [26]
  cell viability: 20.5%
NOMO1 [5]; [27]
  cell viability: 9.85%
NOMO1 [5]; [28]
  cell viability: 6.35%
NOMO1 [5]; [29]
  cell viability: 3.75%
P12-Ichikawa [6]; 0.000781 µM
  cell viability: 126%
P12-Ichikawa [6]; 0.00234 µM
  cell viability: 124%
P12-Ichikawa [6]; 0.00702 µM
  cell viability: 123%
P12-Ichikawa [6]; 0.0211 µM
  cell viability: 129%
P12-Ichikawa [6]; 0.0632 µM
  cell viability: 121%
P12-Ichikawa [6]; 0.19 µM
  cell viability: 100%
P12-Ichikawa [6]; 0.569 µM
  cell viability: 11.3%
P12-Ichikawa [6]; 1.71 µM
  cell viability: 7.84%
P12-Ichikawa [6]; 5.12 µM
  cell viability: 5.43%
P12-Ichikawa [6]; 15.4 µM
  cell viability: 3.44%
P12-Ichikawa [6]; 46.1 µM
  cell viability: 1.95%
NOMO1 [2]; HPLM + 10% dialyzed FBS
  AUC of viability dose-response curve: 271
NOMO1 [2]; RPMI 5 mM glucose + 10% FBS
  AUC of viability dose-response curve: 283
NOMO1 [2]; [18]
  AUC of viability dose-response curve: 286
P12-Ichikawa [3]; HPLM + 10% dialyzed FBS
  AUC of viability dose-response curve: 263
P12-Ichikawa [3]; RPMI 5 mM glucose + 10% FBS
  AUC of viability dose-response curve: 258
P12-Ichikawa [3]; [18]
  AUC of viability dose-response curve: 261
SEM cells [4]; HPLM + 10% dialyzed FBS
  AUC of viability dose-response curve: 259
SEM cells [4]; RPMI 5 mM glucose + 10% FBS
  AUC of viability dose-response curve: 253
SEM cells [4]; [18]
  AUC of viability dose-response curve: 260

## CCC(C)N(C)C(=O)c1cc2ccccc2c(-c2ccccc2Cl)n1 (stereo not drawn)
NOMO1 [2]; HPLM + 10% dialyzed FBS
  AUC of viability dose-response curve: 452
NOMO1 [2]; RPMI 5 mM glucose + 10% FBS
  AUC of viability dose-response curve: 473
NOMO1 [2]; [18]
  AUC of viability dose-response curve: 453
P12-Ichikawa [3]; HPLM + 10% dialyzed FBS
  AUC of viability dose-response curve: 462
P12-Ichikawa [3]; RPMI 5 mM glucose + 10% FBS
  AUC of viability dose-response curve: 471
P12-Ichikawa [3]; [18]
  AUC of viability dose-response curve: 463
SEM cells [4]; HPLM + 10% dialyzed FBS
  AUC of viability dose-response curve: 461
SEM cells [4]; RPMI 5 mM glucose + 10% FBS
  AUC of viability dose-response curve: 460
SEM cells [4]; [18]
  AUC of viability dose-response curve: 464

## O=C(C1CCCCC1)N1CC(=O)N2CCc3ccccc3C2C1 (stereo not drawn)
NOMO1 [5]; [7]
  cell viability: 106%
NOMO1 [5]; [8]
  cell viability: 147%
NOMO1 [5]; [9]
  cell viability: 125%
NOMO1 [5]; [10]
  cell viability: 125%
NOMO1 [5]; [11]
  cell viability: 126%
NOMO1 [5]; [12]
  cell viability: 130%
NOMO1 [5]; [13]
  cell viability: 140%
NOMO1 [5]; [14]
  cell viability: 110%
NOMO1 [5]; [15]
  cell viability: 108%
NOMO1 [5]; [16]
  cell viability: 107%
NOMO1 [5]; [17]
  cell viability: 114%
SEM cells [1]; [7]
  cell viability: 90.6%
SEM cells [1]; [8]
  cell viability: 98.8%
SEM cells [1]; [9]
  cell viability: 117%
SEM cells [1]; [10]
  cell viability: 108%
SEM cells [1]; [11]
  cell viability: 113%
SEM cells [1]; [12]
  cell viability: 96%
SEM cells [1]; [13]
  cell viability: 97.1%
SEM cells [1]; [14]
  cell viability: 86.1%
SEM cells [1]; [15]
  cell viability: 78.2%
SEM cells [1]; [16]
  cell viability: 84.1%
SEM cells [1]; [17]
  cell viability: 75.8%
SEM cells [1]; [19]
  cell viability: 99.9%
SEM cells [1]; [20]
  cell viability: 109%
SEM cells [1]; [21]
  cell viability: 126%
SEM cells [1]; [22]
  cell viability: 105%
SEM cells [1]; [23]
  cell viability: 116%
SEM cells [1]; [24]
  cell viability: 95.8%
SEM cells [1]; [25]
  cell viability: 91.6%
SEM cells [1]; [26]
  cell viability: 74.3%
SEM cells [1]; [27]
  cell viability: 66.7%
SEM cells [1]; [28]
  cell viability: 75.1%
SEM cells [1]; [29]
  cell viability: 78.4%
SEM cells [1]; RPMI 5 mM glucose + 10% dialyzed FBS, 0.000781 µM
  cell viability: 106%
SEM cells [1]; RPMI 5 mM glucose + 10% dialyzed FBS, 0.00234 µM
  cell viability: 110%
SEM cells [1]; RPMI 5 mM glucose + 10% dialyzed FBS, 0.00702 µM
  cell viability: 147%
SEM cells [1]; RPMI 5 mM glucose + 10% dialyzed FBS, 0.0211 µM
  cell viability: 99.1%
SEM cells [1]; RPMI 5 mM glucose + 10% dialyzed FBS, 0.0632 µM
  cell viability: 133%
SEM cells [1]; RPMI 5 mM glucose + 10% dialyzed FBS, 0.19 µM
  cell viability: 132%
SEM cells [1]; RPMI 5 mM glucose + 10% dialyzed FBS, 0.569 µM
  cell viability: 103%
SEM cells [1]; RPMI 5 mM glucose + 10% dialyzed FBS, 1.71 µM
  cell viability: 77.9%
SEM cells [1]; RPMI 5 mM glucose + 10% dialyzed FBS, 5.12 µM
  cell viability: 75%
SEM cells [1]; RPMI 5 mM glucose + 10% dialyzed FBS, 15.4 µM
  cell viability: 74.8%
SEM cells [1]; RPMI 5 mM glucose + 10% dialyzed FBS, 46.1 µM
  cell viability: 73.1%
NOMO1 [2]; HPLM + 10% dialyzed FBS
  AUC of viability dose-response curve: 445
NOMO1 [2]; RPMI 5 mM glucose + 10% FBS
  AUC of viability dose-response curve: 466
NOMO1 [2]; [18]
  AUC of viability dose-response curve: 452
P12-Ichikawa [3]; HPLM + 10% dialyzed FBS
  AUC of viability dose-response curve: 386
P12-Ichikawa [3]; RPMI 5 mM glucose + 10% FBS
  AUC of viability dose-response curve: 385
P12-Ichikawa [3]; [18]
  AUC of viability dose-response curve: 369
SEM cells [4]; HPLM + 10% dialyzed FBS
  AUC of viability dose-response curve: 434
SEM cells [4]; RPMI 5 mM glucose + 10% FBS
  AUC of viability dose-response curve: 407
SEM cells [4]; [18]
  AUC of viability dose-response curve: 406
